Legend:
[1] = system: human non-small-cell lung carcinoma, A549; assay: Cytotoxicity in vitro (Microculture Tetrazolium Assay), A549; format: cell-based; conditions: 96 h, A549 cells, incubated 4 days, inhibition of proliferation by 50%
Experimental: (§1) Three cell lines are used:
1 human non-small-cell lung carcinoma, A549,
(§2) The cells are cultured in complete RPMI 1640 culture medium containing 10% foetal calf serum, 2 mM glutamine, 50 units/ml of penicillin, 50 μg/ml of streptomycin and 10 mM Hepes, pH=7.4. The cells are distributed in microplates and exposed to the cytotoxic compounds. The cells are then incubated for 2 days (L1210) or 4 days (A549, HT29). The number of viable cells is then quantified by means of a calorimetric assay, the Microculture Tetrazolium Assay (Cancer Res. 1987, 47, 939-942).
(§3) The results are expressed as IC50, the concentration of cytotoxic agent that inhibits the proliferation of the treated cells by 50%.

[2] = system: human colon carcinoma, HT29; assay: Cytotoxicity in vitro (Microculture Tetrazolium Assay), HT29; format: cell-based; conditions: HT-29, 96 h, HT29 cells, incubated 4 days, inhibition of proliferation by 50%
Experimental: as §1
1 human colon carcinoma, HT29
as §2, §3

P388 (murine leukaemia) = assay: In vivo anti-tumour activity on P388 leukaemia; set-up: species or system female BDF1 mice; conditions: P388 i.p. in BDF1 mice, intraperitoneal route on day 1, active from the 50 mg/kg dose
Experimental: Line P388 (murine leukaemia) was supplied by the National Cancer Institute (Frederick, USA). The tumour cells (10^6 cells) were inoculated on day 0 into the peritoneal cavity of female BDF1 mice (Iffa-Credo, France) weighing from 18 to 20 g (groups of 6 animals). The products were administered by the intraperitoneal route on day 1 (D1).
The anti-tumour activity is expressed as % T/C: [formula]

murine leukaemia, L1210 = assay: Cytotoxicity in vitro (Microculture Tetrazolium Assay), L1210; format: cell-based; conditions: Mus musculus, 48 h; L1210 cells, incubated 2 days, inhibition of proliferation by 50%
Experimental: as §1
1 murine leukaemia, L1210,
as §2, §3

SMILES: COc1cc(C2C3=C(COC3=O)N(C)c3cc4c(cc32)OCO4)cc(OC)c1OC (racemic) [Example 1, (±)-4-Methyl-6,7-methylenedioxy-9-(3,4,5-trimethoxyphenyl)-4,9-dihydrofuro[3,4-b]quinolin-1(3H)-one]
- IC50 [1]: 102 nM
- IC50 [2]: 104 nM
- T/C (survival of the treated animals) (P388 (murine leukaemia)): ≥ 200%
- IC50 (murine leukaemia, L1210): 53 nM

SMILES: COc1cc(CN2C3=C(C(=O)OC3)C(c3cc(OC)c(OC)c(OC)c3)c3cc4c(cc32)OCO4)cc(OC)c1O (racemic) [Example 8, (±)-4-(3,5-Dimethoxy-4-hydroxybenzyl)-6,7-methylenedioxy-9-(3,4,5-trimethoxyphenyl)-4,9-dihydrofuro[3,4-b]quinolin-1(3H)-one]
- IC50 [1]: 147 nM
- IC50 [2]: 153 nM
- IC50 (murine leukaemia, L1210): 62 nM

SMILES: COc1cc(C2C3=C(COC3=O)Nc3cc4c(cc32)OCO4)cc(OC)c1OC (racemic) [Example 10, (±)-6,7-Methylenedioxy-9-(3,4,5-trimethoxyphenyl)-4,9-dihydrofuro[3,4-b]quinolin-1(3H)-one]
- IC50 [1]: 22 nM
- IC50 [2]: 18 nM
- IC50 (murine leukaemia, L1210): 12 nM
